Source: patent publication US8168650B2, “Therapeutic uses of bicyclic ligands of sigma 2 receptor” (priority 2006, dated 2012)
“Also recorded” adds a separate entry of the source. Counter-ions that a name gives are not always drawn. Like-named read-outs stand apart in the source and are kept apart here.

Tests used:
σ2 receptor = biological target: T1, σ2 receptor (Rattus norvegicus, UniProt Q5U3Y7); assay: σ2 receptor binding assay, [3H]DTG or [3H]RHM-1; conditions: for σ1/σ2 Ratio: Ki for σ1/Ki for σ2
T1 construct: from tissue; host or cells: rat liver membrane homogenates
T1 sequence (Q5U3Y7 1-176): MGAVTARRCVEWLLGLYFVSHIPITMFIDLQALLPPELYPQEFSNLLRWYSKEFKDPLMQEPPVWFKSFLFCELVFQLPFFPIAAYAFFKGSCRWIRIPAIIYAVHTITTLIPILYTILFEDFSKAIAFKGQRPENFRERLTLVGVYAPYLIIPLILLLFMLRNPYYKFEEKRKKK
Procedure: (§1) In vitro binding studies were conducted in order to determine the affinity of the target compounds at σ1 and σ2 receptors.
(§2) In this example, test compounds were dissolved in N,N-dimethylformamide (DMF), dimethylsulfoxide (DMSO) or ethanol and then diluted in 50 mM Tris-HCl, pH 7.4 buffer containing 150 mM NaCl and 100 mM EDTA. Membrane homogenates were made from guinea pig brain for σ1 binding assays and rat liver for σ2 binding assays. Membrane homogenates were diluted with 50 mM Tris-HCl buffer, pH 8.0, and incubated at 25° C. in a total volume of 150 μL in 96-well plates with the radioligand and test compounds with concentrations ranging from 0.1 nM to 10 μM. After incubation was completed, the reactions were terminated by the addition of 150 μL of ice-cold wash buffer (10 mM Tris-HCl, 150 mM NaCl, pH 7.4) using a 96-channel transfer pipette (Fisher Scientific, Pittsburgh, Pa.), and the samples harvested and filtered rapidly through 96-well fiberglass filter plate (Millipore, Billerica, Mass.) that had been presoaked with 100 μL of 50 mM Tris-HCl buffer, pH 8.0, for 1 h. Each filter was washed three times with 200 μL of ice cold wash buffer.
(§3) Ki values were calculated using the method of Cheng and Prusoff20 and represent mean values±SEM.

σ1 receptor [1] = biological target: T2, σ1 receptor (Cavia porcellus, UniProt Q60492); assay: biochemical
T2 sequence (Q60492 whole entry): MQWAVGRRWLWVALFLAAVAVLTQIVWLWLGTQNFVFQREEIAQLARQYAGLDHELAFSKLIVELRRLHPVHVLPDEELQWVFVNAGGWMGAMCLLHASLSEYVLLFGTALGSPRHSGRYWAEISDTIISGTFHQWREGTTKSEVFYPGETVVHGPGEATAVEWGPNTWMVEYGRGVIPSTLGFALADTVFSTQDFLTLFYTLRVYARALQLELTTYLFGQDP
Procedure: as §1, §2, §3

σ1 receptor [2] = biological target: T2, σ1 receptor
Procedure: as §1, §2, §3

[3] = tested on: pancreatic cancer cell lines (Panc-02, CFPAC-1, AsPC-1, Panc-1); assay: Apoptosis in pancreas cancer cell lines (TUNEL / cleaved caspase-3, flow cytometry); type: cell-based, mouse, human; conditions: 24 hours incubation
Procedure: Tumor cells were seeded at a density of approximately 0.2×10^6 cells per well in 12-well plates in 1.0 ml culture medium. Cells were split and pre-incubated at 37° C. in humidified 5% CO2 for more than 24 hours (Panc-02) and 48 hours (CFPAC-1, AsPC-1, Panc-1) to insure uniform growth conditions. Compounds were dissolved in DMSO and added to the culture medium at the concentrations indicated. The final concentration of DMSO in the cell culture medium was less than 1%. The cells were then incubated for 24 hours at 37° C. in humidified 5% CO2. The extent of apoptosis was subsequently measured as previously reported (Guelen, L., et al., Oncogene 2004, 23: 1153-1165). Briefly, staining was performed on trypsin-EDTA treated cultures that had been fixed with 1% paraformaldehyde and 90% methanol. Cell pellets were resuspended in TUNEL reagent (APO-BRDU kit, San Diego, Calif.) or cleaved caspase-3 antibody (Cell Signaling Technology, Inc. Boston, Mass.) and incubated overnight at room temperature (TUNEL) or 4° C. (cleaved caspase-3). After washing, cells were resuspended in fluorescein antibody or 7-AAD buffer and incubated for 1 hour at room temperature. Cell-associated fluorescence was determined using a flow cytometry (FACScan, BD Biosciences) and analyzed with CellQuest software (BD Biosciences).
At the highest dose tested (10 μM), all sigma-2 receptor ligands induced an additional 10-20% of the cells to undergo apoptosis (FIG. 15A). […] The pan-caspase inhibitor (Z-VAD-fmk) and caspase-3/7 inhibitor (DEVD-CHO) prevented sigma-2 receptor ligand-induced apoptosis in panc-02 cells, while the caspase-1 inhibitor (YVAD-CHO) had no effect (FIG. 15B).

EMT-6 cells = conditions: EMT-6, 1 h pre-incubation with inhibitor (100 μM), MTS assay
Procedure: To determine the effect of blocking the caspase-dependent apoptotic pathway on sigma ligand-induced cell killing, the caspase inhibitors, Z-VAD-FMK or Z-DEVD-FMK (Calbiochem, San Diego, Calif.) were added to the culture medium 1 hour before the sigma ligands, and the MTS assay performed as described above.

[4] = Ki σ2, inhibiting binding of [3H]DTG or [3H]RHM-1 to rat liver homogenates, mean ± SEM
[5] = inhibiting binding of [3H]DTG or [3H]RHM-1 to rat liver homogenates, mean ± SEM, read-out: Ki σ2

| Molecule | σ1/σ2 Ratio (σ2 receptor) | Ki (σ2 receptor; [4]) [nM] | Ki (σ1 receptor [1]) [nM] | other results |
| --- | --- | --- | --- | --- |
| COc1ccc(C)cc1NC(=O)OC1CC2CCCC(C1)N2CCCCN (stereo not drawn) [Compound 1a, N-(9-(4-Aminobutyl)-9-azabicyclo[3.3.1]nonan-3α-yl)-N-(2-methoxy-5-methyl-phenyl)carbamate hydrochloride] | 193 | 12.9 ± 0.46 | 2490 ± 271 | affinity and selectivity for σ2 versus σ1 receptors (in words) (σ2 receptor): moderate affinity and selectivity |
| COc1ccc(C)cc1NC(=O)O[C@H]1C[C@H]2CCC[C@@H](C1)N2CCCCCCN.Cl [Compound 1b, N-(9-(6-Aminohexyl)-9-azabicyclo[3.3.1]nonan-3α-yl)-N-(2-methoxy-5-methyl-phenyl)carbamate hydrochloride] | 273 | – | – | affinity and selectivity for σ2 versus σ1 receptors (in words) (σ2 receptor; hydrochloride): highest affinity and selectivity; also recorded: moderate affinity and selectivity; Ki (σ2 receptor; [5]): 5.19 ± 0.8 nM; Ki (σ1 receptor [2]): 1420 ± 439 nM |
| COc1ccc(C)cc1NC(=O)OC1CC2CCCC(C1)N2CCCCCCCCCCN (stereo not drawn) [Compound 1c, N-(9-(10-Aminodecyl)-9-azabicyclo[3.3.1]nonan-3α-yl)-N-(2-methoxy-5-methylphenyl)carbamate hydrochloride] | 19 | – | – | affinity and selectivity for σ2 versus σ1 receptors (in words) (σ2 receptor): high affinity at σ2 receptor but low selectivity; Ki (σ2 receptor; [5]): 7.07 ± 1.27 nM; Ki (σ1 receptor [2]): 134 ± 11.9 nM |
| COc1ccc(C)cc1NC(=O)OC1CC2CCCC(C1)N2CCCCNCc1cccc(Br)c1 (stereo not drawn) [Compound 2a, N-(9-(4-(3′-Bromobenzylamino)butyl)-9-azabicyclo[3.3.1]nonan-3α-yl)-N-(2-methoxy-5-methylphenyl)carbamate oxalate] | 21.66 | 3.06 ± 0.41 | 66.3 ± 5.3 | – |
| COc1ccc(C)cc1NC(=O)OC1CC2CCCC(C1)N2CCCCNCc1cccc(F)c1 (stereo not drawn) [Compound 2b, N-(9-(4-(3′-Fluorobenzylamino)butyl)-9-azabicyclo[3.3.1]nonan-3α-yl)-N-(2-methoxy-5-methylphenyl)carbamate oxalate] | 0.07 | 4.13 ± 0.33 | 0.3 ± 0.05 | – |
| COc1ccc(C)cc1NC(=O)O[C@H]1C[C@H]2CCC[C@@H](C1)N2CCCCNCc1cccc(I)c1 [Compound 2c, N-(9-(4-(3′-Iodobenzylamino)butyl)-9-azabicyclo-[3.3.1]nonan-3α-yl)-N-(2-methoxy-5-methylphenyl)carbamate oxalate] | 52.77 | 1.21 ± 0.14 | 63.9 ± 5.61 | – |
| COc1ccc(C)cc1NC(=O)OC1CC2CCCC(C1)N2CCCCNCc1ccc(Br)cc1 (stereo not drawn) [Compound 2d, N-(9-(4-(4′-Bromobenzylamino)butyl)-9-azabicyclo[3.3.1]nonan-3α-yl)-N-(2-methoxy-5-methylphenyl)carbamates] | 0.42 | 4.07 ± 0.61 | 1.7 ± 0.28 | – |
| COc1ccc(C)cc1NC(=O)OC1CC2CCCC(C1)N2CCCCNCc1ccc(F)cc1 (stereo not drawn) [Compound 2e, N-(9-(4-(4′-Fluorobenzylamino)butyl)-9-azabicyclo[3.3.1]nonan-3α-yl)-N-(2-methoxy-5-methylphenyl)carbamate oxalate] | 0.76 | 29.1 ± 3.48 | 22.1 ± 1.58 | – |
| COc1ccc(C)cc1NC(=O)OC1CC2CCCC(C1)N2CCCCNCc1ccc(I)cc1 (stereo not drawn) [Compound 2f, N-(9-(4-(4′-Iodobenzylamino)butyl)-9-azabicyclo[3.3.1]nonan-3α-yl)-N-(2-methoxy-5-methylphenyl)carbamate oxalate] | 0.08 | 4 ± 0.54 | 0.34 ± 0.03 | – |
| COc1ccc(C)cc1NC(=O)OC1CC2CCCC(C1)N2CCCCCCNCc1cccc(Br)c1 (stereo not drawn) [Compound 3a, N-(9-(6-(3′-Bromobenzylamino)hexyl)-9-azabicyclo[3.3.1]nonan-3α-yl)-N-(2-methoxy-5-methylphenyl)carbamate oxalate] | 12.57 | 8.94 ± 0.61 | 112 ± 4.8 | – |
| COc1ccc(C)cc1NC(=O)OC1CC2CCCC(C1)N2CCCCCCNCc1cccc(F)c1 (stereo not drawn) [Compound 3b, N-(9-(6-(3′-Fluorobenzylamino)hexyl)-9-azabicyclo[3.3.1]nonan-3α-yl)-N-(2-methoxy-5-methylphenyl)carbamate oxalate] | 0.09 | 4.85 ± 0.49 | 0.46 ± 0.05 | – |
| COc1ccc(C)cc1NC(=O)O[C@H]1C[C@H]2CCC[C@@H](C1)N2CCCCCCNCc1cccc(I)c1 [Compound 3c, N-(9-(6-(3′-Iodobenzylamino)hexyl)-9-azabicyclo-[3.3.1]nonan-3α-yl)-N-(2-methoxy-5-methylphenyl)carbamate oxalate] | 0.02 | 32.7 ± 5.93 | 0.56 ± 0.06 | – |
| COc1ccc(C)cc1NC(=O)OC1CC2CCCC(C1)N2CCCCCCNCc1ccc(Br)cc1 (stereo not drawn) [Compound 3d, N-(9-(6-(4′-Bromobenzylamino)hexyl)-9-azabicyclo[3.3.1]nonan-3α-yl)-N-(2-methoxy-5-methylphenyl)carbamate oxalate] | 4.35 | 9.93 ± 1.61 | 43.2 ± 2.88 | – |
| COc1ccc(C)cc1NC(=O)OC1CC2CCCC(C1)N2CCCCCCNCc1ccc(F)cc1 (stereo not drawn) [Compound 3e, N-(9-(6-(4′-Fluorobenzylamino)hexyl)-9-azabicyclo[3.3.1]nonan-3α-yl)-N-(2-methoxy-5-methylphenyl)carbamate oxalate] | 0.01 | 70.9 ± 4.38 | 1 ± 0.26 | – |
| COc1ccc(C)cc1NC(=O)OC1CC2CCCC(C1)N2CCCCCCNCc1ccc(I)cc1 (stereo not drawn) [Compound 3f, N-(9-(6-(4′-Iodobenzylamino)hexyl)-9-azabicyclo[3.3.1]nonan-3α-yl)-N-(2-methoxy-5-methylphenyl)carbamate oxalate] | 0.02 | 35.9 ± 1.5 | 0.65 ± 0.09 | – |
| COc1ccc(C)cc1NC(=O)OC1CC2CCCC(C1)N2CCCCCCNC(=O)c1ccc(Cl)cc1 (stereo not shown) [Compound 4a] | 392 | 3.56 ± 0.08 | 1400 ± 64 | affinity and selectivity for σ2 versus σ1 receptors (in words) (σ2 receptor): high affinity and selectivity |
| COc1ccc(C)cc1NC(=O)OC1CC2CCCC(C1)N2CCCCCCNC(=O)c1ccc(Br)cc1 (stereo not drawn) [Compound 4b, N-(9-(4-(4′-Bromobenzoylamino)hexyl)-9-azabicyclo[3.3.1]nonan-3α-yl)-N-(2-methoxy-5-methylphenyl)carbamate oxalate] | 2.84 | – | 2040 ± 98 | Ki (σ2 receptor; read-out: Ki σ2): 719 ± 84 nM |
| COc1ccc(C)cc1NC(=O)OC1CC2CCCC(C1)N2CCCCCCNS(=O)(=O)c1cccc2c(N(C)C)cccc12 (stereo not drawn) [Compound 9, N-(9-(6-(5-Dimethylamino-1-naphthalenesulfonamido))hexyl)-9-azabicyclo[3.3.1]-nonan-3α-yl-N-(2-methoxy-5-methylphenyl)carbamate oxalate] | 85.43 | – | 12600 | affinity and selectivity for σ2 versus σ1 receptors (in words) (σ2 receptor): moderate affinity and selectivity; Ki (σ2 receptor; read-out: Ki σ2): 148 ± 8.85 nM |
| O=C(CCCN1CCC(O)(c2ccc(Cl)cc2)CC1)c1ccc(F)cc1 [Haloperidol, reference compound] | – | – | – | apoptosis in all pancreas cancer cell lines tested [3]: dose-dependent apoptosis |
| COc1ccc(C)cc1NC(=O)OC1C[C@H]2CCC[C@@H](C1)N2CCCCCCN (stereo partly shown) [SV119] | 273 | – | – | Ki (σ2 receptor; [5]): 5.2 nM; Ki (σ1 receptor [2]): 1420 nM |
| COC(=O)CC[C@H](NC(=O)[C@H](CC(=O)OC)NC(=O)OCc1ccccc1)C(=O)N[C@H](C(=O)N[C@@H](CC(=O)OC)C(=O)CF)C(C)C [Z-DEVD-FMK] | – | – | – | effect on cell death / cytotoxic effects induced by the three σ2 selective ligands (EMT-6 cells): partially blocked; also recorded: partially, but not completely, blocked |
| N-(9-(4-(4′-Fluorobenzoylamino)hexyl)-9-azabicyclo[3.3.1]nonan-3α-yl)-N-(2-methoxy-5-methylphenyl)carbamate oxalate [Compound 4c] | 2.50 | – | – | Ki (σ2 receptor; [5]): 497 ± 103 nM; Ki (σ1 receptor [2]): 1240 ± 212 nM |
| N-(9-(4-(40-Iodobenzoylamino)hexyl)-9-azabicyclo[3.3.1]nonan-3α-yl)-N-(2-methoxy-5-methylphenyl)carbamate oxalate [Compound 4d] | 1.40 | – | – | Ki (σ2 receptor; [5]): 1010 nM; Ki (σ1 receptor [2]): 1410 ± 318 nM |
